Results taken from patent US9936701B2, “Herbicidal compounds” (Syngenta Participations AG, priority 2013, dated 2018).

Experiments:
[1] = system: a variety of test species; assay: Post-emergence herbicidal activity (glasshouse, sprayed after 8 days cultivation, evaluated after 13 days); type: in vivo; set-up: key: 5=total damage to plant; 0=no damage to plant; conditions: rate 1000 g/Ha, scale 0-5
How it was run: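 Pot-grown plants, 8 days after sowing, were sprayed with compound formulated in acetone/water (50:50) with 0.5% Tween 20. Glasshouse conditions 24/16° C day/night, 14 h light, 65% humidity; damage scored after 13 days on a 0 (none) to 5 (total) scale.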

[2] = system: a variety of test species; assay: Pre-emergence herbicidal activity (glasshouse, sprayed one day after sowing, evaluated after 13 days); type: in vivo; set-up: key: 5=total damage to plant; 0=no damage to plant; conditions: application pre-emergence, rate 1000 g/Ha, scale 0-5
How it was run: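 Sow in pots of standard soil; after one day under glasshouse conditions, spray compound (acetone/water 50:50 formulation, 0.5% Tween 20, diluted in water). Grow on at 24/16 °C, 14 h light, 65% humidity with twice-daily watering. Assess at 13 days, 0–5 damage scale.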

| melting point | SMILES | ABUTH (Abutilon theophrasti) damage score, application post-emergence [1] | ALOMY (Alopecurus myosuroides) damage score, application post-emergence [1] | AMARE (Amaranthus retroflexus) damage score, application post-emergence [1] | ECHCG (Echinochloa crus-galli) damage score, application post-emergence [1] | SETFA (Setaria faberi) damage score, application post-emergence [1] | ZEAMX (Zea mays) damage score, application post-emergence [1] | Pre-emergence herbicidal damage score, ABUTH [2] | Pre-emergence herbicidal damage score, ALOMY [2] | Pre-emergence herbicidal damage score, AMARE [2] | Pre-emergence herbicidal damage score, ECHCG [2] | Pre-emergence herbicidal damage score, SETFA [2] | Pre-emergence herbicidal damage score, ZEAMX [2] |
| --- | --- | --- | --- | --- | --- | --- | --- | --- | --- | --- | --- | --- | --- |
| 163 to 164 °C | C=CCNC1=C(Cl)C(=O)N(c2cc(C(C)(C)C)on2)C1O (centres unmarked) [C7] | 5 | 4 | 5 | 5 | 5 | 3 | 5 | 3 | 5 | 5 | 3 | 2 |
| 179 to 180 °C | CC(C)(C)c1cc(N2C(=O)C(Cl)=C(NC3CC3)C2O)no1 (centres unmarked) [C8] | 5 | 4 | 5 | 5 | 5 | 4 | 5 | 3 | 5 | 5 | 3 | 2 |
| 82 to 95 °C | COC1=C(C)C(O)N(c2cc(C(C)(C)C)on2)C1=O (centres unmarked) [D1, 1-(5-tert-butylisoxazol-3-yl)-2-hydroxy-4-methoxy-3-methyl-2H-pyrrol-5-one] | 5 | 4 | 5 | 5 | 5 | 4 | 5 | 4 | 5 | 4 | 5 | 2 |
| 98 to 100 °C | COC1=C(C)C(O)N(c2noc(C(C)(C)C)c2C#N)C1=O (centres unmarked) [D2, 5-tert-butyl-3-(2-hydroxy-4-methoxy-3-methyl-5-oxo-2H-pyrrol-1-yl)isoxazole-4-carbonitrile] | 5 | 5 | 5 | 5 | 5 | 4 | 5 | 3 | 5 | 4 | 5 | 3 |
| 99 to 101 °C | COC1=C(C)C(O)N(c2noc(C(C)C)c2C#N)C1=O (centres unmarked) [D3] | 5 | 5 | 5 | 5 | 5 | 4 | 4 | 3 | 5 | 5 | 5 | 2 |
